Test results taken from patent US5902812A, “Pharmaceutical piperazine compounds” (Xenova Limited, priority 1994, dated 1999).
Structures can show the parent of a compound that is named as a salt. Where two headings read alike, the source gives them in different places.

Biological target: PAI-1 (Homo sapiens, UniProt P05121)
Assay: biochemical
[1] = 20 μM (third part of Table 1), read-out: Degree of inhibition in PAI chromogenic substrate assay
[2] = 100 μM (third part of Table 1), read-out: Degree of inhibition in PAI chromogenic substrate assay
[3] = PAI chromogenic substrate assay, read-out: IC50
[4] = 20 μM (third part of Table 1), 20 µM
[5] = 50 μM (third part of Table 1), read-out: Degree of inhibition in PAI chromogenic substrate assay
[6] = 6.25 μM, read-out: Degree of inhibition in PAI chromogenic substrate assay
[7] = 12.5 μM, read-out: Degree of inhibition in PAI chromogenic substrate assay
[8] = 25 μM, read-out: Degree of inhibition in PAI chromogenic substrate assay
[9] = 50 μM, read-out: Degree of inhibition in PAI chromogenic substrate assay
[10] = 100 μM, read-out: Degree of inhibition in PAI chromogenic substrate assay

Sequence of PAI-1 (P05121 24-402): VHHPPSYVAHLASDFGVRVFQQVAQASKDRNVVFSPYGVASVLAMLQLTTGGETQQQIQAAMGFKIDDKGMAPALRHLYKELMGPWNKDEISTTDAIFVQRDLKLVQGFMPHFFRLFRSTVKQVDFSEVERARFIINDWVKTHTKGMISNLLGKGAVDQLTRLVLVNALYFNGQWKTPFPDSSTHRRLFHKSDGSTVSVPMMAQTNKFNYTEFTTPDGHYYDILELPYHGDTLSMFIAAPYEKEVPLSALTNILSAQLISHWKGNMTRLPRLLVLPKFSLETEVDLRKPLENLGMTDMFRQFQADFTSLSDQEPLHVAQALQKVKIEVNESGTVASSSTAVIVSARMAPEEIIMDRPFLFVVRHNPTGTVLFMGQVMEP
Description: In this assay, a compound is incubated with PAI-1 prior to addition to the tPA assay system. Inhibition of PAI-1 results in the production of plasmin from plasminogen. In turn, plasmin cleaves the chromogenic substrate S2251 (Kabi Vitrum) producing pNA (p-nitroaniline) which is detected spectrophotometrically at 405 nm (K. Nilsson et al, Fibrinolysis (1987) 1, 163-168).
Compounds of formula (A) were tested in a PAI chromogenic substrate assay. In the assay (K.Nilsson, Fibrinolysis (1987) 1, 163-168) each compound was incubated with PAI-1 prior to addition to the tPA assay system. […] In turn, the plasmin cleaved the chromogenic substrate S2251 (Kabi-Vitrum) producing pNA (p-nitroaniline) which was detected spectrophotometrically at 405 nm.

CN(C)CCOc1ccc(/C=c2\[nH]c(=O)/c(=C/c3ccccc3)[nH]c2=O)cc1 [Compound 1961, (3Z,6Z)-3-Benzylidene-6-(4-(2-dimethylaminoethoxy)benzylidene)-2,5-piperazinedione] was tested, and the inhibition at 3.75 µM (3.75 μM, read-out: Degree of inhibition in PAI chromogenic substrate assay) was 1%, the inhibition at 7.5 µM (7.5 μM, read-out: Degree of inhibition in PAI chromogenic substrate assay) was 11% and the inhibition at 15 µM (15 μM, read-out: Degree of inhibition in PAI chromogenic substrate assay) was 41%. It also gave an inhibition at 30 µM (30 μM, read-out: Degree of inhibition in PAI chromogenic substrate assay) of 49% and an inhibition at 60 µM (60 μM, read-out: Degree of inhibition in PAI chromogenic substrate assay) of 48%.
Work on CN(C)CCCOc1ccc(/C=c2\[nH]c(=O)/c(=C/c3ccc(Cl)cc3)[nH]c2=O)cc1 [Compound 5233] yielded an inhibition at 20 µM [1] of 47%, an inhibition at 100 µM [2] of 50% and an IC50 [3] of 2.5 µM.
Compound CN(C)CCCOc1ccc(/C=c2\[nH]c(=O)/c(=C/c3ccc(F)cc3)[nH]c2=O)cc1 [Compound 5365, (3Z,6Z)-3-(4-(3-Dimethylaminopropoxy)benzylidene)-6-(4-fluorobenzylidene)-2,5-piperazinedione] has an IC50 [3] of 6.5 µM.
CN(C)CCCOc1ccc(/C=c2\[nH]c(=O)/c(=C/c3ccc(C(N)=O)cc3)[nH]c2=O)cc1 [Compound 5254, 4-((3Z,6Z)-6-(4-(3-Dimethylaminopropoxy)benzylidene)-2,5-dioxo-3-piperazinylidene)methylbenzamide] showed a Degree of inhibition in PAI chromogenic substrate assay [4] of 76%, an inhibition at 100 µM [2] of 79% and an IC50 [3] of 35 µM.
CN(C)CCCOc1ccc(/C=c2\[nH]c(=O)/c(=C/c3cc([N+](=O)[O-])cc([N+](=O)[O-])c3)[nH]c2=O)cc1 [Compound 5378, (3Z,6Z)-6-(4-(3-Dimethylaminopropoxy)benzylidene)-3-(3,5-dinitrobenzylidene)-2,5-piperazinedione] was tested, and the IC50 (IC50, PAI chromogenic substrate assay) was 20 µM and the inhibition at 20 µM (read-out: Degree of inhibition in PAI chromogenic substrate assay) was 50%.
With CN(C)CCCOc1ccc(/C=c2\[nH]c(=O)/c(=C/c3ccc(C(=O)NCCc4ccccc4)cc3)[nH]c2=O)cc1 [Compound 5345, N-Phenethyl-4-((3Z,6Z)-6-(4-(3-Dimethylaminopropoxy)benzylidene)-2,5-dioxo-3-piperazinylidene)methylbenzamide] the inhibition at 20 µM [1] was 39%.
Work on CN(C)CCCOc1ccc(/C=c2\[nH]c(=O)/c(=C/c3ccc([N+](=O)[O-])cc3)[nH]c2=O)cc1 [Compound 5230, (3Z,6Z)-3-(4-(3-dimethylaminopropoxy)benzylidene)-6-(4-nitrobenzylidene)-2,5-piperazinedione] yielded an inhibition at 20 µM [1] of 30%, an inhibition at 100 µM [2] of 9% and an IC50 [3] of 0.75 µM.
For CCN(CC)CCOc1ccc(/C=c2\[nH]c(=O)/c(=C/c3ccccc3)[nH]c2=O)cc1 [Compound 5065.HCl], the inhibition at 20 µM [1] was 12%, the inhibition at 50 µM [5] was 80% and the inhibition at 100 µM [2] was 85%.
CN(C)CCSCc1ccc(/C=c2\[nH]c(=O)/c(=C/c3ccccc3)[nH]c2=O)cc1 [Compound 5058, (3Z,6Z)-6-Benzylidene-3-(4-(2-Dimethylaminoethylthiomethyl)benzylidene)-2,5-piperazinedione] gave an inhibition at 20 µM [1] of 75%, an inhibition at 50 µM [5] of 68% and an inhibition at 100 µM [2] of 67%.
Work on CN(C)CCOc1ccc(/C=c2\[nH]c(=O)/c(=C/c3ccccc3)[nH]c2=O)cc1 [Compound 1908, (3Z,6Z)-3-Benzylidene-6-(4-(2-dimethylaminoethoxy)benzylidene)-2,5-piperazinedione] yielded a Degree of inhibition in PAI chromogenic substrate assay (6.25 μM) of 12%, a Degree of inhibition in PAI chromogenic substrate assay (12.5 μM) of 29% and a Degree of inhibition in PAI chromogenic substrate assay (25 μM) of 66%. The Degree of inhibition in PAI chromogenic substrate assay (50 μM) was 69% and the Degree of inhibition in PAI chromogenic substrate assay (100 μM) was 74%.
With CN(C)CCCOc1ccc(/C=c2\[nH]c(=O)/c(=C/c3ccc(Cl)c(Cl)c3)[nH]c2=O)cc1 [Compound 5236] the IC50 [3] was 2.8 µM.
CN(C)CCCOc1ccc(/C=c2\[nH]c(=O)/c(=C/c3cccc(Br)c3)[nH]c2=O)cc1 [Compound 5375, (3Z,6Z)-3-(3-Bromobenzylidene)-6-(4-(3-dimethylaminopropoxy)benzylidene)-2,5-piperazinedione] gave an IC50 [3] of 4.5 µM.
CN(C)CCCOc1ccc(/C=c2\[nH]c(=O)/c(=C/c3ccc(C(N)=O)cc3)[nH]c2=O)cc1 [Compound 5246, 4-((3Z,6Z)-6-(4-(3-Dimethylaminopropoxy)benzylidene)-2,5-dioxo-3-piperazinylidene)methylbenzamide] gave a Degree of inhibition in PAI chromogenic substrate assay [4] of 34%.
With CN(C)CCCOc1ccc(/C=c2\[nH]c(=O)/c(=C/c3cccc(N4C(=O)c5ccccc5C4=O)c3)[nH]c2=O)cc1 [Compound 5255, (3Z,6Z)-6-(4-(3-Dimethylaminopropoxy)benzylidene)-3-(3-phthalimidobenzylidene)-2,5-piperazinedione] the inhibition at 20 µM [1] was 80%, the inhibition at 100 µM [2] was 33% and the IC50 [3] was 15 µM.
CN(C)CCOc1ccc(/C=c2\[nH]c(=O)/c(=C/c3ccc(F)cc3F)[nH]c2=O)cc1 [Compound 1977, (3Z,6Z)-3-(2,4-Difluorobenzylidene)-6-(4-(2-dimethylaminoethoxy)benzylidene)-2,5-piperazinedione] was tested, and the inhibition at 6.25 µM [6] was 0%, the inhibition at 12.5 µM [7] was 20% and the inhibition at 25 µM [8] was 47%. The inhibition at 50 µM [9] was 47% and the inhibition at 100 µM [10] was 54%.
CN(C)CCCOc1ccc(/C=c2\[nH]c(=O)/c(=C/c3ccc(Cl)c([N+](=O)[O-])c3)[nH]c2=O)cc1 [Compound 5398, (3Z,6Z)-3-(4-Chloro-3-nitrobenzylidene)-6-(4-(3-dimethylaminopropoxy)benzylidene)-2,5-piperazinedione] gave an inhibition at 20 µM [1] of 54% and an IC50 [3] of 4.2 µM.
Cc1ccc(/C=c2\[nH]c(=O)/c(=C/c3ccc(OCCCN(C)C)cc3)[nH]c2=O)cc1 [Compound 5235, (3Z,6Z)-3-(4-(3-Dimethylaminopropoxy)benzylidene)-6-(4-methylbenzylidene)-2,5-piperazinedione] gave an IC50 [3] of 6 µM.
In the case of CN(C)CCCOc1ccc(/C=c2\[nH]c(=O)/c(=C/c3ccc(N(C)C)cc3)[nH]c2=O)cc1 [Compound 5068.HCl, (3Z,6Z)-3-(4-Dimethylaminobenzylidene)-6-(4-(3-dimethylaminopropoxy)benzylidene)-2,5-piperazinedione], the inhibition at 20 µM [1] is reported as 81%, the inhibition at 50 µM [5] is reported as 76% and the inhibition at 100 µM [2] is reported as 75%.
CN(C)CCCOc1ccc(/C=c2\[nH]c(=O)/c(=C/c3ccc(C(=O)Nc4ccccc4)cc3)[nH]c2=O)cc1 [Compound 5343, 4-((3Z,6Z)-6-(4-(3-Dimethylaminopropoxy)benzylidene)-2,5-dioxo-3-piperazinylidene)methylbenzanilide] gave an inhibition at 20 µM [1] of 20%.
Compound CCCCOc1ccc(/C=c2\[nH]c(=O)/c(=C/c3ccc(OCCCN(C)C)cc3)[nH]c2=O)cc1 [Compound 1920, (3Z,6Z)-3-(4-Butoxybenzylidene)-6-(4-(3-dimethylaminopropoxy)benzylidene)-2,5-piperazinedione] has an inhibition at 6.25 µM [6] of 33%, an inhibition at 12.5 µM [7] of 50% and an inhibition at 25 µM [8] of 57%. For the same compound, the inhibition at 50 µM [9] was 66% and the inhibition at 100 µM [10] was 68%.
In the case of CN(C)CCCOc1ccc(/C=c2\[nH]c(=O)/c(=C/c3cccc([N+](=O)[O-])c3)[nH]c2=O)cc1 [Compound 5209, (3Z,6Z)-6-(4-(3-Dimethylaminopropoxy)benzylidene)-3-(3-nitrobenzylidene)-2,5-piperazinedione], the IC50 [3] is reported as 1.4 µM.
CN(C)CCCOc1ccc(/C=c2\[nH]c(=O)/c(=C/c3ccc4c(c3)OCO4)[nH]c2=O)cc1 [Compound 5201, (3Z,6Z)-6-(4-(3-Dimethylaminopropoxy)benzylidene)-3-(3,4-methylenedioxybenzylidene)-2,5-piperazinedione] was tested, and the inhibition at 20 µM [1] was 43%, the inhibition at 100 µM [2] was 47% and the IC50 [3] was 2.5 µM.
COc1ccccc1/C=c1\[nH]c(=O)/c(=C/c2ccc(OCCCN(C)C)cc2)[nH]c1=O [Compound 5241, (3Z,6Z)-6-(4-(3-Dimethylaminopropoxy)benzylidene)-3-(2-methoxybenzylidene)-2,5-piperazinedione] gave an inhibition at 20 µM [1] of 1% and an inhibition at 100 µM [2] of 21%.
Work on CN(C)CCOc1ccc(/C=c2\[nH]c(=O)/c(=C/c3ccccc3)[nH]c2=O)cc1 [Compound 1924, (3Z,6Z)-3-Benzylidene-6-(4-(2-dimethylaminoethoxy)benzylidene)-2,5-piperazinedione] yielded a Degree of inhibition in PAI chromogenic substrate assay (6.25 μM) of 9%, a Degree of inhibition in PAI chromogenic substrate assay (12.5 μM) of 7% and a Degree of inhibition in PAI chromogenic substrate assay (25 μM) of 18%. For the same compound, the Degree of inhibition in PAI chromogenic substrate assay (50 μM) was 38% and the Degree of inhibition in PAI chromogenic substrate assay (100 μM) was 64%.
CC(=O)Nc1cccc(/C=c2\[nH]c(=O)/c(=C/c3ccc(OCCCN(C)C)cc3)[nH]c2=O)c1 [Compound 5256, (3Z,6Z)-3-(3-Acetamidobenzylidene)-6-(4-(3-dimethylaminopropoxy)benzylidene)-2,5-piperazinedione] was tested, and the inhibition at 20 µM [1] was 10%, the inhibition at 100 µM [2] was 65% and the IC50 [3] was 100 µM.
CN(C)CCCOc1ccc(/C=c2\[nH]c(=O)/c(=C/c3ccc([N+](=O)[O-])cc3)[nH]c2=O)cc1 [Compound 5228, (3Z,6Z)-3-(4-(3-dimethylaminopropoxy)benzylidene)-6-(4-nitrobenzylidene)-2,5-piperazinedione] showed an IC50 [3] of 1.1 µM.
For COc1ccc(/C=c2\[nH]c(=O)/c(=C/c3ccc(OCCN(C)C)cc3)[nH]c2=O)cc1 [Compound 1911], the inhibition at 6.25 µM [6] was 13%, the inhibition at 12.5 µM [7] was 20% and the inhibition at 25 µM [8] was 15%. It also gave an inhibition at 50 µM [9] of 23% and an inhibition at 100 µM [10] of 38%.
In the case of CN(C)CCCOc1ccc(/C=c2\[nH]c(=O)/c(=C/c3cccc(Cl)c3)[nH]c2=O)cc1 [Compound 5237], the inhibition at 20 µM [1] is reported as 72%, the Degree of inhibition in PAI chromogenic substrate assay (100 μM (third part of Table 1), 100 µM) is reported as 67% and the IC50 [3] is reported as 4 µM.
